Test [1] has as its target Epidermal growth factor receptor (Homo sapiens, UniProt P00533, L858R/T790M). Put plainly: Inhibition of EGFR L858R/T790M mutant (unknown origin).
Test [2] addresses Epidermal growth factor receptor (Homo sapiens, UniProt P00533). Put plainly: Inhibition of wild-type EGFR (unknown origin) using TK as substrate incubated for 120 mins in presence of ATP by HTRF assay. (In general: Time-resolved FRET reads energy transfer from a long-lived donor to a nearby acceptor.)
For a further test, the system named is NCI-H1975. Put plainly: Cytotoxicity against human NCI-H1975 cells assessed as reduction in cell viability incubated for 48 hrs by CCK-8 assay. It counts as functional, cell-based. Conditions: NCI-H1975, 48 h.
A further test deals with PC-9. Put plainly: Cytotoxicity against human PC-9 cells assessed as reduction in cell viability incubated for 48 hrs by CCK-8 assay. The format is functional, cell-based. Conditions: PC-9, 48 h. (In general: Tetrazolium assays rely on reduction of a dye to a coloured formazan, in cell work by metabolically active cells.)
Another test relates to NCI-H292. As to the kind of experiment: Cytotoxicity against human NCI-H292 cells assessed as reduction in cell viability incubated for 48 hrs by CCK-8 assay. It counts as functional, cell-based. Conditions: NCI-H292, 48 h.

Each structure is given as a SMILES string.

Epidermal growth factor receptor (Homo sapiens, UniProt P00533, L858R/T790M), sequence (P00533 25-1210 T790M/L858R limits assumed): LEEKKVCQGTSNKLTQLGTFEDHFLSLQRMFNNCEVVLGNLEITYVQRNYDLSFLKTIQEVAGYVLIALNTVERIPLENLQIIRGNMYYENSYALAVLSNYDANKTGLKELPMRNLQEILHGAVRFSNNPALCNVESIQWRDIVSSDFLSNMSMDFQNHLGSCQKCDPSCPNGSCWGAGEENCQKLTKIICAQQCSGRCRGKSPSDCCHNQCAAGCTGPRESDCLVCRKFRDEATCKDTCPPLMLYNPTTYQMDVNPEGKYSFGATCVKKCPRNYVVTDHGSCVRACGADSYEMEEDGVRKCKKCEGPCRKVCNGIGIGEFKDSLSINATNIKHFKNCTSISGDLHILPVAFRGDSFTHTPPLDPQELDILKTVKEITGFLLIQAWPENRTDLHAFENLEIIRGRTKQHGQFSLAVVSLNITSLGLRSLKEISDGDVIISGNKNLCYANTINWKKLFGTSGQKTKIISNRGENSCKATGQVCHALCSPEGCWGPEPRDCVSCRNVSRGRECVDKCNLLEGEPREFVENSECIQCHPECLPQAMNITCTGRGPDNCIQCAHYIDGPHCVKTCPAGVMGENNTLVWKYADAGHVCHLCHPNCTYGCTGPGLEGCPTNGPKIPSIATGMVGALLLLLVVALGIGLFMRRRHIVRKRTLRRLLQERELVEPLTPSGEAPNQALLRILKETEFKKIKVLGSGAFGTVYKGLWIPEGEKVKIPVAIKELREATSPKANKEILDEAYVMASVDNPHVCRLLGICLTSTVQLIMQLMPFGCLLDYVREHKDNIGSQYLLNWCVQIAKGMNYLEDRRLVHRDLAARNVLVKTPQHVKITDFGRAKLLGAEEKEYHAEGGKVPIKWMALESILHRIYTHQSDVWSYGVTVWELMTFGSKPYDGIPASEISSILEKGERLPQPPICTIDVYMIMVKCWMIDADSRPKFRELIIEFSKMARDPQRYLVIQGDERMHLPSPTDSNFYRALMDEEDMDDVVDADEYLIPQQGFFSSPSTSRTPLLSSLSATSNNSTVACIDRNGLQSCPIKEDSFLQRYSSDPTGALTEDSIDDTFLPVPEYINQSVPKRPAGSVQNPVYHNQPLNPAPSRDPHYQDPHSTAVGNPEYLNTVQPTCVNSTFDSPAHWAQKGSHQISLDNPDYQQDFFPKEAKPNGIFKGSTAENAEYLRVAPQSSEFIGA
Epidermal growth factor receptor (Homo sapiens, UniProt P00533), sequence (P00533 whole entry): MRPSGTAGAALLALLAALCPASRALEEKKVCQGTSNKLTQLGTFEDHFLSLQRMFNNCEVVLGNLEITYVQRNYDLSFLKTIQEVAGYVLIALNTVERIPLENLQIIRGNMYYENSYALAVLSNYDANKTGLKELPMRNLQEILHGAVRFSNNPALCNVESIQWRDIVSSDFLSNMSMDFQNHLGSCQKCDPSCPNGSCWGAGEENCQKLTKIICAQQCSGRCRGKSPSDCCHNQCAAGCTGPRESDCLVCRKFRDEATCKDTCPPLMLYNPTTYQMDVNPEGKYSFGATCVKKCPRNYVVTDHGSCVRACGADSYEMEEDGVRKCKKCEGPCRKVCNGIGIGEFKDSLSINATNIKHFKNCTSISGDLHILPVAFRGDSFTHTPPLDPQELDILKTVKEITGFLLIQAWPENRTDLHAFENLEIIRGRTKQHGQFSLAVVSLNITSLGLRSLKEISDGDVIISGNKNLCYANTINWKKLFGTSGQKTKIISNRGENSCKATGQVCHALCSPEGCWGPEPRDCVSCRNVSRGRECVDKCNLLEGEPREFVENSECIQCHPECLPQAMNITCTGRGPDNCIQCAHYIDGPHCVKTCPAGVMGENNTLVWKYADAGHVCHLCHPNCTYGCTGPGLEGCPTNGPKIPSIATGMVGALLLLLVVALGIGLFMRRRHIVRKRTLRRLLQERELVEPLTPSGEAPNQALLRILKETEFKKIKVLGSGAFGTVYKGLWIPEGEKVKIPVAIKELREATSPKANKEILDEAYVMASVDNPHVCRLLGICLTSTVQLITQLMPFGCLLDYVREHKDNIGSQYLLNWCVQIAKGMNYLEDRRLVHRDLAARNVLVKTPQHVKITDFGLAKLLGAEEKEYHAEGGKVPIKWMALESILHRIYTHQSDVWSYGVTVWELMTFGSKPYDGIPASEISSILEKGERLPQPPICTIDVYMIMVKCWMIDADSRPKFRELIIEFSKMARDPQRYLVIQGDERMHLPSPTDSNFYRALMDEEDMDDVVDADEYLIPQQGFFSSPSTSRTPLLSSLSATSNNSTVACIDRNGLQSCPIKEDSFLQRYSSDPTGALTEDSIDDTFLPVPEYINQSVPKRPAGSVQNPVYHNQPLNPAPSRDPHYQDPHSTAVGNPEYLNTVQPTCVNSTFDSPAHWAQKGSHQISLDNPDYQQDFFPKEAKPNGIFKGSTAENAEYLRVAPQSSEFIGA

Regarding `C=CC(=O)Nc1cc(Nc2nccc(-c3csc4ccccc34)n2)c(OC)cc1N(C)CCN(C)C`, the IC50 came to 0.26 nM in test [1]; 4.11 nM in test [2]; 2 nM in the test with NCI-H1975; 4 nM in the test with PC-9; 4400 nM in the test on NCI-H292.

Usually IC50 stands for the point on the concentration scale where inhibition reaches its midpoint.

These data come from ChEMBL document CHEMBL5576081, “Exploring the structural activity relationship of the Osimertinib: A covalent inhibitor of double mutant EGFRL858R/T790M tyrosine kinase for the treatment of Non-Small Cell Lung Cancer (NSCLC)” (Bioorg Med Chem, 2024).
